Results published in US20060128614A1, “Antimicrobial peptides with reduced hemolysis and methods of their use” (priority 2002, published 2006).
Values after ≈ are worked out from the molar mass of the structure shown. Read-outs that look alike come from different tables or passages of the source. Non-standard residues stand in square brackets, D forms with d. Residues, ends and D or L forms follow the SMILES beside them. 2Nal = N[C@@H](Cc1ccc2ccccc2c1)C(=O)O

Columns and labels:
[1] = tested on: Gram-positive and Gram-negative bacteria; assay: Antimicrobial activity of Trp template peptides; format: cell-based; conditions: qualitative statement
[2] = qualitative statement
[3] = tested on: S. epidermidis; format: cell-based, Staphylococcus epidermidis
Procedure: (§1) The in vitro antimicrobial activities of antimicrobial agents were tested using standard NCCLS bacterial and fungi inhibition assays or minimum inhibition concentration (MIC) tests. The MIC value is the lowest concentration of peptide at which the visible growth of test organisms was inhibited and reduced. Overnight cultures of the test organisms were diluted to produce an inoculum containing approximately […] in Meuller-Hinton broth (MHB). From the peptide stock solution, serial dilutions of the peptides into […] were prepared and all wells of a 96-well microtiter plate were subsequently inoculated with the diluted culture of the test organisms. After 18 hours of incubation at 37°, the results were assayed for turbidity as an indicator of cell growth. MIC values for the peptides are shown in Table 3 and Table 4 and FIGS. 1(A), 1(B), 1 (C) and 1 (D) show survival rates for Pac-625 and Pac-626.

[4] = tested on: E. coli; format: cell-based, Escherichia coli
Procedure: as §1

[5] = tested on: B. subtilis; format: cell-based, Bacillus subtilis
Procedure: as §1

[6] = tested on: S. aureus; format: cell-based, Staphylococcus aureus
Procedure: as §1

[7] = tested on: outer membrane of E. coli; assay: NPN uptake assay, outer membrane permeabilization; format: cell-based; conditions: intact cells of E. coli
Procedure: The outer membrane permeabilization activity of the peptide variants was determined by the 1-N-phenylnaphthylamine (NPN) uptake assay, using intact cells of E. coli. […] Since NPN is hydrophobic, it provides a direct measurement of the degree of outer membrane permeability. E. coli take up little or no NPN in a general condition. In the presence of permeabilizer compounds (EDTA, polymyxin B, Neomycin, or antimicrobial peptides), NPN partitioned into the bacterial outer membrane results in an increase in fluorescence. Fluorescence will vary with the concentration of peptide.
One ml of overnight culture was used to inoculate 50 ml of media and incubated at 37° C. with shaking. The culture was permitted to grow to an OD600 of 0.4 to 0.6, cells were spun down at 3500 rpm for 10 minutes, washed, and re-suspended in buffer to an OD600 of 0.5. The OD600 was recorded, 1 ml of cells (OD600=0.5) was added to the cuvette and measured after 2-5 seconds. 20 μl NPN 0.5 mM, shaken to mix, was added and measured after 2-5 seconds. 10 ul antibiotic 100× desired final concentration was added, shaken to mix, and measured until the maximal value was reached within 1 to 5 minutes. The concentration of peptide leading to 50% of the maximum increase in NPN uptake was recorded as the P50.

[8] = tested on: human red blood cells (RBC); format: cell-based
Procedure: Pac-401, Pac-403, Pac-625 and Pac-626 were tested for hemolysis against human red blood cells (RBC). The RBCs with EDTA were rinsed 3 times with PBS (800 g, 10 min) and re-suspended in PBS. The RBCs were diluted into 10% with phosphate-buffered saline and placed […] into each eppendorf. The peptides dissolved in PBS were then added to 50 μl of 10% solution of RBCs and incubated for an hour at 37° C. (final RBC concentration, 5% v/v). The samples were centrifuged at 800 g for 10 min […]. Various concentrations of peptides were incubated with pretreated RBC and the percentage of hemolysis determined.

[9] = tested on: Candida albicans; format: cell-based
Procedure: as §1

[10] = tested on: B. cereus; format: cell-based, Bacillus cereus
Procedure: as §1

| MIC S. epidermidis [3] [µg/mL] | MIC against E. coli [4] [µg/mL] | MIC against E. coli ([4]; 18 h) [µg/mL] | MIC B. subtilis [5] [µg/mL] | MIC against S. aureus [6] [µg/mL] | MIC against S. aureus ([6]; 18 h) [µg/mL] | % lysis @ 5 μg/ml [8] [%] | % lysis @ 50 μg/ml [8] [%] | % lysis @ 500 μg/ml [8] [%] | MIC Candida albicans [9] [µg/mL] | MIC B. cereus [10] [µg/mL] | MIC S. aureus [6] [µg/mL] | Compound | antimicrobial activity [1] | hemolytic activity [2] | P50 (concentration of peptide leading to 50% of the maximum increase in NPN uptake) [7] [µg/mL] |
| --- | --- | --- | --- | --- | --- | --- | --- | --- | --- | --- | --- | --- | --- | --- | --- |
| – | – | – | – | – | – | – | – | – | – | – | – | CC[C@H](C)[C@H](NC(=O)[C@H](Cc1c[nH]c2ccccc12)NC(=O)[C@H](CCCNC(=N)N)NC(=O)[C@@H](NC(=O)[C@H](Cc1c[nH]c2ccccc12)NC(=O)[C@H](CCCNC(=N)N)NC(=O)[C@H](CCCNC(=N)N)NC(=O)[C@H](Cc1c[nH]c2ccccc12)NC(=O)[C@H](CCCCN)NC(C)=O)C(C)C)C(N)=O [Pac-525, Ac-KWRRWVRW1-NH2] (Ac-KWRRWVRWI-NH2) | improved activity against both Gram-positive and Gram-negative bacteria | reduced hemolytic activity | – |
| 2 (≈ 1.37 µM) | 2 (≈ 1.37 µM) | 2 (≈ 1.37 µM) | 4 (≈ 2.74 µM) | 4 (≈ 2.74 µM) | 4 (≈ 2.74 µM) | 0.82 | 7.3 | 15 | 16 (≈ 11 µM) | – | – | CC[C@H](C)[C@H](NC(=O)[C@H](Cc1ccc2ccccc2c1)NC(=O)[C@H](CCCNC(=N)N)NC(=O)[C@@H](NC(=O)[C@H](Cc1ccc2ccccc2c1)NC(=O)[C@H](CCCNC(=N)N)NC(=O)[C@H](CCCNC(=N)N)NC(=O)[C@H](Cc1ccc2ccccc2c1)NC(=O)[C@H](CCCCN)NC(C)=O)C(C)C)C(N)=O [Pac-625 L, K (2-Nal) R R (2-Nal) V R (2-Nal) I] (Ac-K[2Nal]RR[2Nal]VR[2Nal]I-NH2) | – | – | 2 |
| – | 4 (≈ 2.74 µM) | 4 (≈ 2.74 µM) | – | 4 (≈ 2.74 µM) | 4 (≈ 2.74 µM) | 0.81 | 7.2 | 14 | 32 (≈ 21.9 µM) | 4 (≈ 2.74 µM) | 4 (≈ 2.74 µM) | CC[C@H](C)[C@H](NC(C)=O)C(=O)N[C@@H](Cc1ccc2ccccc2c1)C(=O)N[C@@H](CCCNC(=N)N)C(=O)N[C@H](C(=O)N[C@@H](Cc1ccc2ccccc2c1)C(=O)N[C@@H](CCCNC(=N)N)C(=O)N[C@@H](CCCNC(=N)N)C(=O)N[C@@H](Cc1ccc2ccccc2c1)C(=O)N[C@@H](CCCCN)C(N)=O)C(C)C [Pac-626 L, I (2-Nal) R V (2-Nal) R R (2-Nal) K] (Ac-I[2Nal]RV[2Nal]RR[2Nal]K-NH2) | – | – | 2 |
